Source: PMC5916808 (Journal of medicinal chemistry, 2017)
Values joined by “and” are separate entries in the source; they are usually repeats but may differ in a detail not shown here. Equal values may be shown once. Blank lines part the entries; values can stand above or below the compound they belong to.

What was measured:
[1] = tested on: AMPA or kainate receptors; settings: cited from earlier work
[2] = cited from earlier work
[3] = ref Jensen, Egebjerg, Bundgaard, unpublished data; cited from earlier work
[4] = Pharmacokinetics and brain penetration after IP dosing, LC/MS/MS; assay type: in vivo, C57Bl/6 mice
[5] = target: T1, GluN1/GluN2C NMDA receptors (Rattus norvegicus, UniProt Q00961); assay type: cell-based
T1 sequence (Q00961 20-1237, other chains not shown): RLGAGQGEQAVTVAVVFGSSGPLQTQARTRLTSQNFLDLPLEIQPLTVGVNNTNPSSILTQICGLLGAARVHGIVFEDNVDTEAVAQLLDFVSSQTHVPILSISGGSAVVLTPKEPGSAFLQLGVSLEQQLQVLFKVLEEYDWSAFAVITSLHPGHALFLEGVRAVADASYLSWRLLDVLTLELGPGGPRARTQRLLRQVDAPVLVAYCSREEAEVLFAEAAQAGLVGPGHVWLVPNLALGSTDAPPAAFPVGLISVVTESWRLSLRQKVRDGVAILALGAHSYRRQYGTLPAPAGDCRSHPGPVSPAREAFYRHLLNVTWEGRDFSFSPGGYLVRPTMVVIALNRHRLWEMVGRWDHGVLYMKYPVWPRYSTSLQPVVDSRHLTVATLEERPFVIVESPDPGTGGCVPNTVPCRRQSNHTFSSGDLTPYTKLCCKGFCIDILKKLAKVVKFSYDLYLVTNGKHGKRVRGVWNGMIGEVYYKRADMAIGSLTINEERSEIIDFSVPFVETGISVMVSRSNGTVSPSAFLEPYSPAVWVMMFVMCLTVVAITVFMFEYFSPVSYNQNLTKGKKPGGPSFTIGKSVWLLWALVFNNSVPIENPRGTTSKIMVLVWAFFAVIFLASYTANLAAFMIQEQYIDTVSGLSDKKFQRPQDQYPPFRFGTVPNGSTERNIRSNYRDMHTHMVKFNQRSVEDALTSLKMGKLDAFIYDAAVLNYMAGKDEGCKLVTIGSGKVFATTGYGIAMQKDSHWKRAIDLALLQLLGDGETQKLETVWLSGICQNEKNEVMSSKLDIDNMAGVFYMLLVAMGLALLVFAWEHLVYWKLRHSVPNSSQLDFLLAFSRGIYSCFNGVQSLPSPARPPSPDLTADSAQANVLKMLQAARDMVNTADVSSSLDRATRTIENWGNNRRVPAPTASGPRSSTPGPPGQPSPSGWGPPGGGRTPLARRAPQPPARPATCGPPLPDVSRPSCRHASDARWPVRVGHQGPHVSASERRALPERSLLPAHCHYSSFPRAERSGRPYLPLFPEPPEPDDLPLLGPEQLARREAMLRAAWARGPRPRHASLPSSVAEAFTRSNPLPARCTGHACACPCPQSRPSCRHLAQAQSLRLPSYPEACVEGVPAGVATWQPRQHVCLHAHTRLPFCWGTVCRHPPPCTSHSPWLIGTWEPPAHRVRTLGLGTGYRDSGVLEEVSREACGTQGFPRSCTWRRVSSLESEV

GluK2 = GluK2 (Rattus norvegicus, UniProt P42260); assay: Two-electrode voltage clamp, GluK2 homomeric receptors in Xenopus oocytes; assay type: cell-based; settings: 30 μM compound co-applied with 100 μM glutamate and 30 μM glycine, n=9
GluK2, sequence (P42260 32-908): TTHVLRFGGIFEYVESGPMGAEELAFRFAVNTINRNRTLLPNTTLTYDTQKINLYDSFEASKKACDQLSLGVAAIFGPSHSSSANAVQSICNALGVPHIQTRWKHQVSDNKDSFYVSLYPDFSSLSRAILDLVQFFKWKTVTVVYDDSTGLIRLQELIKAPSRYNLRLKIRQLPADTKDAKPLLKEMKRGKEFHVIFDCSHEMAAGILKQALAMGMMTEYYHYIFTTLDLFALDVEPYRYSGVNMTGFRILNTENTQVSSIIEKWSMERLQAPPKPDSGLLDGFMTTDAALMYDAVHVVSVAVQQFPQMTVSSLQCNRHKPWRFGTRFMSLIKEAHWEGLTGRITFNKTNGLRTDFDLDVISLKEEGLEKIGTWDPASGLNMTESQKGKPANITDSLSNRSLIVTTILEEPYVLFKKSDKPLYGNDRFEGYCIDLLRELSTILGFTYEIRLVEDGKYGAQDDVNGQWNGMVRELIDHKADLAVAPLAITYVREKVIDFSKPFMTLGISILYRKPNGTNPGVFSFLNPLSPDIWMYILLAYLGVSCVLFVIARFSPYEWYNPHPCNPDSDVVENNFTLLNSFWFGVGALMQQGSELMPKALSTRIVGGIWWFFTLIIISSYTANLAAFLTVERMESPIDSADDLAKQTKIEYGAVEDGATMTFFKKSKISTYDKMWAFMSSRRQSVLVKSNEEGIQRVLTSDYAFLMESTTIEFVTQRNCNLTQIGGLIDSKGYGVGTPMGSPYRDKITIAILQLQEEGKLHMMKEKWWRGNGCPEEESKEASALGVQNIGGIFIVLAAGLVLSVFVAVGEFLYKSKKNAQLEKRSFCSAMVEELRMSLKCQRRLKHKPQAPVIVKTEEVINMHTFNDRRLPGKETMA

[6] = target: T2, GluN1/GluN2D NMDA receptors (Rattus norvegicus, UniProt Q62645); assay type: cell-based
T2 sequence (Q62645 28-1323, other chains not shown): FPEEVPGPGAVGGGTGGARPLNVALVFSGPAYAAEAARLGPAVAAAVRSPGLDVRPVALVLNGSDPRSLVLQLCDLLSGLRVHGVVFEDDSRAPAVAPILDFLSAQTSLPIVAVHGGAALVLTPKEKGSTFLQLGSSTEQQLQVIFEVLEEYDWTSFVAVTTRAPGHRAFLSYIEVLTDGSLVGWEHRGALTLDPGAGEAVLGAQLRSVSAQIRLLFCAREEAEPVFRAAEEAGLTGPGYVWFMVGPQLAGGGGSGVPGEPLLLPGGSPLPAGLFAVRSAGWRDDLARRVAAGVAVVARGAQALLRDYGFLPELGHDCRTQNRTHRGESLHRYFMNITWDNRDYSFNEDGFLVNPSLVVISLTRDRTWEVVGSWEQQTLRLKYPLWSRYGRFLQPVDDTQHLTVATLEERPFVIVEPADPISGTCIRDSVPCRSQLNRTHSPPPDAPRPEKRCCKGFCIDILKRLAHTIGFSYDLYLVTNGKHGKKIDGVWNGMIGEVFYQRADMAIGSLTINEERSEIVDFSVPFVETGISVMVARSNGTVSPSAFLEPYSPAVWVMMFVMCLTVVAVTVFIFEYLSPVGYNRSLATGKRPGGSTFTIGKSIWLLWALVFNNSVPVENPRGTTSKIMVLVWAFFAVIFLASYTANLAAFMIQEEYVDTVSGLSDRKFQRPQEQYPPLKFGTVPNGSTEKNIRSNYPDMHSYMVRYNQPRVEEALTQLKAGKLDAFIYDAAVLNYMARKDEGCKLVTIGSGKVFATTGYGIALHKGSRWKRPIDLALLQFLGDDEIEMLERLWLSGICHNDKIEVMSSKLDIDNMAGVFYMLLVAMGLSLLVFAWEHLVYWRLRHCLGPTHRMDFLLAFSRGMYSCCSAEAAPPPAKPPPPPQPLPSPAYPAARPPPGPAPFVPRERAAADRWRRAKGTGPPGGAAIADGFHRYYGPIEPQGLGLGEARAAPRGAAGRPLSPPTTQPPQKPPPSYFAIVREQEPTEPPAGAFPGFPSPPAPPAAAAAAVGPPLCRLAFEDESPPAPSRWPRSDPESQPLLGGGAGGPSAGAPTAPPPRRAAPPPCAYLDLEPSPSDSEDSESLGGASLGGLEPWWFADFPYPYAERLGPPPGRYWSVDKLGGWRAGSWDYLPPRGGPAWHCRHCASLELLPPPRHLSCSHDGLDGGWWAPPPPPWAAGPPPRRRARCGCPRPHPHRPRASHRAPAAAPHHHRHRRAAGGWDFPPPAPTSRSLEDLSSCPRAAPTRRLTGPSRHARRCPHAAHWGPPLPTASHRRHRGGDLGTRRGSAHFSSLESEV

[7] = target: GluN1/GluN2B NMDA receptors (Rattus norvegicus, UniProt Q00960); assay type: cell-based; settings: for fold increase in potency at GluN2B, thioamide compared to amide: 138 vs 2, 142 vs 97
GluN1/GluN2B NMDA receptors, sequence (Q00960 27-1482, other chains not shown): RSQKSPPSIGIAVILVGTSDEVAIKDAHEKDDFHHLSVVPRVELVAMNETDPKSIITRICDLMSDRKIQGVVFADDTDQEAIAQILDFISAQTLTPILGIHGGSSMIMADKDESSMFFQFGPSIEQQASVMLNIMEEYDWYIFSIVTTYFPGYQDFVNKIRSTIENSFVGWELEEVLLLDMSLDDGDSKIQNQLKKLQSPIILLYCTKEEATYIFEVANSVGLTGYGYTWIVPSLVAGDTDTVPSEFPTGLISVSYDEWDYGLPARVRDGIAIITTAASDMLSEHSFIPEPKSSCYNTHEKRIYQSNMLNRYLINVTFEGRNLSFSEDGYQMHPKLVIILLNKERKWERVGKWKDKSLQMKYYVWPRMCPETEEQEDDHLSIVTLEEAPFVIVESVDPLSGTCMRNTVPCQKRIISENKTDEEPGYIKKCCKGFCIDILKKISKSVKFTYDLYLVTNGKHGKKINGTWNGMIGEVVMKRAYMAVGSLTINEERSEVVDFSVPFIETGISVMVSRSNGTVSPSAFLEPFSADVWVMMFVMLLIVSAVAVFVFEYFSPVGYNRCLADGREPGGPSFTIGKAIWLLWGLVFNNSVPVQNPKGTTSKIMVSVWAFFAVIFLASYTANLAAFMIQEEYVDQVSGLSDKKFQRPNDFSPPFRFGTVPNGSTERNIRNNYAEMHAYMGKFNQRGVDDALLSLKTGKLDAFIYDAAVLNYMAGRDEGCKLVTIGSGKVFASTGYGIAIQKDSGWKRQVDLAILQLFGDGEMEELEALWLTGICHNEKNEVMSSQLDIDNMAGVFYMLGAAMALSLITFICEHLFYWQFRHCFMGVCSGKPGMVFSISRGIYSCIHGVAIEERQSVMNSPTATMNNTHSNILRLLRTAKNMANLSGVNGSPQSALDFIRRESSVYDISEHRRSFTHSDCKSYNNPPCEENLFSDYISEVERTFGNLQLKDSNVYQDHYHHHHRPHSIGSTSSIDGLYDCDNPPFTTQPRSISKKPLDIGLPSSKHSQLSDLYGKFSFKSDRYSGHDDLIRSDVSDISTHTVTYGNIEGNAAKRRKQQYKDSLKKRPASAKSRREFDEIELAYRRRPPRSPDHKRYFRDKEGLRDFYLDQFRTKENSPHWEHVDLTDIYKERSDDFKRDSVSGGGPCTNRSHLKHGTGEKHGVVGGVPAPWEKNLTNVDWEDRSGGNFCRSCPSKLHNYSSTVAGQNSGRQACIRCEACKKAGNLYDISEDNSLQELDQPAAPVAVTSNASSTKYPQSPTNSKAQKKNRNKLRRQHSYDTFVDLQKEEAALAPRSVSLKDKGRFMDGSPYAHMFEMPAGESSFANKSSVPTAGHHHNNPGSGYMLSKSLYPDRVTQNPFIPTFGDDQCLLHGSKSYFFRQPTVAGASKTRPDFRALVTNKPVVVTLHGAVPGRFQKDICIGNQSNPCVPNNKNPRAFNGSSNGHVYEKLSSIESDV

[8] = target: T1, GluN1/GluN2C NMDA receptors; settings: 30 μM; previously published data; cited from earlier work
[9] = target: T2, GluN1/GluN2D NMDA receptors; settings: 30 μM; previously published data; cited from earlier work
[10] = tested on: GluN1/GluN2A, GluN1/GluN2B, GluN1/GluN2C, and GluN1/GluN2D NMDA receptors; assay: Two-electrode voltage clamp, activity profile across GluN2 subunits; assay type: cell-based, rat; settings: potentiation of response to maximal glutamate and glycine
[11] = Solubility of test compound in oocyte recording solution; assay type: physicochemical; settings: aqueous buffer
[12] = target: GluN1/GluN2D NMDA receptors (Rattus norvegicus, UniProt P35439+Q62645); assay type: cell-based
GluN1/GluN2D NMDA receptors (Rattus norvegicus, UniProt P35439+Q62645), sequence (Q62645 28-1323, other chains not shown): as the sequence (Q62645 28-1323, other chains not shown) above

GluN1/GluN2B receptors = settings: noncompetitive inhibitor; cited from earlier work
[13] = 30 μM co-applied with either 30 μM glutamate or 10 μM glycine
[14] = percentage of the initial glutamate (100 μM) and glycine (30 μM) current

Compound: COc1ccc(OCC2c3cc(OC)c(OC)cc3CCN2C(=O)c2cccc(Cl)c2)cc1 (stereo not shown) [CIQ]
- effect on AMPA or kainate receptors [1]: no effect on AMPA or kainate receptors
- brain penetration [2]: brain penetrant
- protein binding [3]: high protein binding

Compound: COc1ccc(OCC2c3ccc(OC(C)C)cc3CCN2C(=O)c2cccc(Cl)c2)cc1 (stereo not shown) [Compound 2, (3-Chlorophenyl)(6-isopropoxy-1-((4-methoxyphenoxy)methyl)-3,4-dihydroisoquinolin-2(1H)-yl)methanone]
- brain concentration ([4]; 10 mg/kg IP, at 15 and 30 min): 303 ng/mL
- peak plasma concentration ([4]; 10 mg/kg IP, at 2 hours, n=3 mice): 789 ng/mL and 1.7 μM
- behavioral observations post-dosing ([4]; 10 mg/kg i.p.): No behavioral abnormalities were observed
- concentration at 4 h ([4]; C57Bl/6, mouse, brain, intraperitoneal, 10 mg/kg): 169 ng/mL
- Tmax ([4]; C57Bl/6, mouse, plasma, ip, 10 mg/kg): 2 h
- agonist activity at GluN1/GluN2C [5, 13]: no agonist activity
- response as % of the control response to glutamate alone, GluK2 (GluK2): 96+9%
- agonist activity at GluN1/GluN2D [6, 13]: no agonist activity
- agonist activity at GluN1/GluN2B [7, 13]: no agonist activity

Compound: COc1ccc(OCC2c3ccc(OC)cc3CCN2C(=O)c2cccc(Cl)c2)cc1 (stereo not shown) [Compound 86]
- I30μM / Icontrol (mean ± SEM, %) GluN2C [8]: 213 ± 13%
- I30μM / Icontrol (mean ± SEM, %) GluN2D [9]: 215 ± 19%

Compound: CCOc1ccc(OCC2c3ccc(OC(C)C)cc3CCN2C(=O)c2ccccc2)cc1 (stereo not shown) [Compound 95, (1-((4-Ethoxyphenoxy)methyl)-6-isopropoxy-3,4-dihydroisoquinolin-2(1H)-yl)(phenyl)methanone]
- activity / subunit selectivity in words [10]: inactive at all subunits

Compound: CCOc1ccc(OCC2c3ccc(OC(C)C)cc3CCN2C(=O)c2cccc(C)c2)cc1 (stereo not shown) [Compound 100, (1-((4-Ethoxyphenoxy)methyl)-6-isopropoxy-3,4-dihydroisoquinolin-2(1H)-yl)(m-tolyl)methanone]
- activity / subunit selectivity in words [10]: inactive

Compound: CCOc1ccc(OCC2c3ccc(OC(C)C)cc3CCN2C(=O)c2cccc(OC)c2)cc1 (stereo not shown) [Compound 101, (1-((4-Ethoxyphenoxy)methyl)-6-isopropoxy-3,4-dihydroisoquinolin-2(1H)-yl)(3-methoxyphenyl)methanone]
- activity / subunit selectivity in words [10]: inactive

Compound: CCOc1ccc(OCC2c3ccc(OC(C)C)cc3CCN2C(=O)c2ccc(F)c(F)c2)cc1 (stereo not shown) [Compound 106, (3,4-Difluorophenyl)(1-((4-ethoxyphenoxy)methyl)-6-isopropoxy-3,4-dihydroisoquinolin-2(1H)-yl)methanone]
- activity / subunit selectivity in words [10]: active

Compound: CCOc1ccc(OCC2c3ccc(OC(C)C)cc3CCN2C(=O)c2ccc(F)c(Cl)c2)cc1 (stereo not shown) [Compound 108, (3-Chloro-4-fluorophenyl)(1-((4-ethoxyphenoxy)methyl)-6-isopropoxy-3,4-dihydroisoquinolin-2(1H)-yl)methanone]
- activity / subunit selectivity in words [10]: active

Compound: CCOc1ccc(OC[C@H]2c3ccc(OC(C)C)cc3CCN2C(=S)c2cccc(F)c2)cc1 [R-(+)-142, (R)-(1-((4-Ethoxyphenoxy)methyl)-6-isopropoxy-3,4-dihydroisoquinolin-2(1H)-yl)(3-fluorophenyl)methanethione]
- activity / subunit selectivity in words [10]: no detectable potentiation of any NMDA receptor subunit combinations

Compound: CC(C(O)c1ccc(O)cc1)N1CCC(Cc2ccccc2)CC1 (stereo not shown) [ifenprodil]
- fold more potent at GluN2B-containing receptors compared to GluN2A, GluN2C, or GluN2D (GluN1/GluN2B receptors): > 100 fold

The next lines start with results.

- activity / subunit selectivity in words [10]: active at only GluN2B
Compound: CCOc1ccc(OCC2c3ccc(OC(C)C)cc3CCN2C(=O)c2cccc(F)c2)cc1 (stereo not shown) [Compound 97, (1-((4-Ethoxyphenoxy)methyl)-6-isopropoxy-3,4-dihydroisoquinolin-2(1H)-yl)(3-fluorophenyl)methanone]

- solubility [11]: < 30 µM
Compound: CCOc1ccc(OCC2c3ccc(OC(C)C)cc3CCN2C(=O)c2cccc(-c3ccccc3)c2)cc1 (stereo not shown) [Compound 99, Biphenyl-3-yl(1-((4-ethoxyphenoxy)methyl)-6-isopropoxy-3,4-dihydroisoquinolin-2(1H)-yl)methanone]
- activity / subunit selectivity in words [10]: inactive

- activity / subunit selectivity in words [10]: complete loss of activity
Compound: CCOc1ccc(OCC2c3ccc(OC(C)C)cc3CCN2C(=O)c2ccccc2F)cc1 (stereo not shown) [Compound 102, (1-((4-Ethoxyphenoxy)methyl)-6-isopropoxy-3,4-dihydroisoquinolin-2(1H)-yl)(2-fluorophenyl)methanone]

- activity / subunit selectivity in words [10]: complete loss of activity
Compound: CCOc1ccc(OCC2c3ccc(OC(C)C)cc3CCN2C(=O)c2ccccc2Cl)cc1 (stereo not shown) [Compound 103, (2-Chlorophenyl)(1-((4-ethoxyphenoxy)methyl)-6-isopropoxy-3,4-dihydroisoquinolin-2(1H)-yl)methanone]

- activity / subunit selectivity in words [10]: complete loss of activity
Compound: CCOc1ccc(OCC2c3ccc(OC(C)C)cc3CCN2C(=O)c2ccc(F)cc2)cc1 (stereo not shown) [Compound 104, (1-((4-Ethoxyphenoxy)methyl)-6-isopropoxy-3,4-dihydroisoquinolin-2(1H)-yl)(4-fluorophenyl)methanone]

- activity / subunit selectivity in words [10]: complete loss of activity
Compound: CCOc1ccc(OCC2c3ccc(OC(C)C)cc3CCN2C(=O)c2ccc(Cl)cc2)cc1 (stereo not shown) [Compound 105, (4-Chlorophenyl)(1-((4-ethoxyphenoxy)methyl)-6-isopropoxy-3,4-dihydroisoquinolin-2(1H)-yl)methanone]

- solubility [11]: < 10 µM
Compound: CCOc1ccc(OCC2c3ccc(OC(C)C)cc3CCN2C(=O)c2ccc(Cl)c(Cl)c2)cc1 (stereo not shown) [Compound 107, (3,4-Dichlorophenyl)(1-((4-ethoxyphenoxy)methyl)-6-isopropoxy-3,4-dihydroisoquinolin-2(1H)-yl)methanone]
- activity / subunit selectivity in words [10]: active

- solubility [11]: < 30 µM
Compound: CCOc1ccc(OCC2c3ccc(OC(C)C)cc3CCN2C(=O)c2cc(Cl)cc(Cl)c2)cc1 (stereo not shown) [Compound 109]

- activity / subunit selectivity in words [10]: all activity was lost
Compound: COc1ccccc1OCC1c2ccc(OC(C)C)cc2CCN1C(=O)c1cccc(Cl)c1 (stereo not shown) [Compound 111, (3-Chlorophenyl)(6-isopropoxy-1-((2-methoxyphenoxy)methyl)-3,4-dihydroisoquinolin-2(1H)-yl)methanone]

- activity / subunit selectivity in words [10]: moderately GluN2B-selective
Compound: CC(C)Oc1ccc(OCC2c3ccc(OC(C)C)cc3CCN2C(=O)c2cccc(Cl)c2)cc1 (stereo not shown) [Compound 113, (3-Chlorophenyl)(6-isopropoxy-1-((4-isopropoxyphenoxy)methyl)-3,4-dihydroisoquinolin-2(1H)-yl)methanone]

- EC50 [12]: 11 µM
- fitted maximum response GluN2D [6, 14]: 493%
- fitted maximum response GluN2B [7, 14]: 391%
Compound: COc1ccc(OCC2c3ccc(OC(C)C)cc3CCN2C(=O)c2cccc(F)c2)cc1 (stereo not shown) [Compound 114, (3-Fluorophenyl)(6-isopropoxy-1-((4-methoxyphenoxy)methyl)-3,4-dihydroisoquinolin-2(1H)-yl)methanone]

- fold increase in potency at GluN2C, thioamide compared to amide ([5]; 138 vs 2): ~4 fold
- fold increase in potency at GluN2D, thioamide compared to amide ([6]; 138 vs 2): ~10 fold
- fold increase in potency at GluN2B, thioamide compared to amide [7]: ~10 fold
Compound: COc1ccc(OCC2c3ccc(OC(C)C)cc3CCN2C(=S)c2cccc(Cl)c2)cc1 (stereo not shown) [Compound 138, (3-Chlorophenyl)(6-isopropoxy-1-((4-methoxyphenoxy)methyl)-3,4-dihydroisoquinolin-2(1H)-yl)methanethione]

- fold increase in potency at GluN2B, thioamide compared to amide [7]: 13 fold
Compound: CCOc1ccc(OCC2c3ccc(OC(C)C)cc3CCN2C(=S)c2cccc(F)c2)cc1 (stereo not shown) [Compound 142, (1-((4-Ethoxyphenoxy)methyl)-6-isopropoxy-3,4-dihydroisoquinolin-2(1H)-yl)(3-fluorophenyl)methanethione]
